We go through 3 compounds from patent US9428508B2, “2,4-diamino-6,7-dihydro-5H-pyrrolo[2,3]pyrimidine derivatives as FAK/Pyk2 inhibitors” (Centaurus BioPharma Co., Ltd., priority 2011, dated 2016).

One test addresses FAK (Homo sapiens (Human), UniProt Q05397). Briefly: Biochemical assay for FAK activity (LANCE TR-FRET, ULight-poly Glu,Ala,Tyr substrate). As to conditions: GST-tagged FAK, 120 min reaction. In outline: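 GST-tagged FAK (2.5 nM working stock) with ULight-poly Glu,Ala,Tyr (666 nM stock) and ATP (33.3 μM stock) in Tris pH 7.5/MgCl2/DTT/CHAPS buffer with BSA, 120 min; EDTA-quenched. Phosphorylation read by TR-FRET with Eu-anti-phosphotyrosine (PY20) antibody after 60 min. Compounds tested as 12-point 3-fold dilutions.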
On the technique in general: Time-resolved FRET reads energy transfer from a long-lived donor to a nearby acceptor.

The next test addresses PYK2 (Homo sapiens (Human), UniProt Q14289). Briefly: Biochemical assay for PYK2 activity (LANCE TR-FRET, ULight-poly Glu,Ala,Tyr substrate). As to conditions: GST-tagged PYK2, 40 min reaction. An outline of the steps:
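GST-tagged human PYK2 (2 nM working stock) with ULight-poly Glu,Ala,Tyr (1:1:1) peptide (666 nM working stock) and ATP (46.6 μM working stock) in 40 mM Tris pH 7.5, MgCl2, 1 mM DTT, 1 mM CHAPS; 40 min reaction, EDTA quench. Phosphotyrosine read by LANCE Eu-anti-phosphotyrosine (PY20) TR-FRET after 60 min; 12-point 3-fold compound dilutions.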

FAK, sequence (Q05397 whole entry): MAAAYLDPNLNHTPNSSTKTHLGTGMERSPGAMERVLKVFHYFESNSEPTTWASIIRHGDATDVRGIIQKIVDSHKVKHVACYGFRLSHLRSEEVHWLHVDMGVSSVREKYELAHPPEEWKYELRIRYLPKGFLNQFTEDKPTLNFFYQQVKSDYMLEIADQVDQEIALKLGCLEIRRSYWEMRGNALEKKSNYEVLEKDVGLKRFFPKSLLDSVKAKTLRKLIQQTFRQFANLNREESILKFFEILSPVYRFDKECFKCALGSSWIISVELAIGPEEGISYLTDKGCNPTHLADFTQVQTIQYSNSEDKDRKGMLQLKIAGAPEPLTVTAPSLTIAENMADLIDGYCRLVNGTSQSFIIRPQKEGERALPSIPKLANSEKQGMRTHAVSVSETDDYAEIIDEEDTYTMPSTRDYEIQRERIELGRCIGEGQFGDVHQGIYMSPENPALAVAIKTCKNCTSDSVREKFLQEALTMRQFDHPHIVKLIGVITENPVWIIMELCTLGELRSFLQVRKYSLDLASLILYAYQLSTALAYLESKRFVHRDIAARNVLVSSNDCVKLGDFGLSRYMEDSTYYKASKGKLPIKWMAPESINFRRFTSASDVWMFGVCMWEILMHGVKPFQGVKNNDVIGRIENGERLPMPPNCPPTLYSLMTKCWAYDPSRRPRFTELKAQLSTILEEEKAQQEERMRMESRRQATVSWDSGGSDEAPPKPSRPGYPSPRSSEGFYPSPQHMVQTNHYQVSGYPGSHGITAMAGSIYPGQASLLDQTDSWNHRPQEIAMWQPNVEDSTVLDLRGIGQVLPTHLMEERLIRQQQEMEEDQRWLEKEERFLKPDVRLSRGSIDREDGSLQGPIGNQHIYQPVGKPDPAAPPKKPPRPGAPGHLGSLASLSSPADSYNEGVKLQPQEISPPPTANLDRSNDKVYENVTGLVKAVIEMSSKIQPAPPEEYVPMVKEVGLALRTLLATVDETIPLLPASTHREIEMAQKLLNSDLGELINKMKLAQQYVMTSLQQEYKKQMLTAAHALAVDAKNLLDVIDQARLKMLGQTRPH
PYK2, sequence (Q14289 whole entry): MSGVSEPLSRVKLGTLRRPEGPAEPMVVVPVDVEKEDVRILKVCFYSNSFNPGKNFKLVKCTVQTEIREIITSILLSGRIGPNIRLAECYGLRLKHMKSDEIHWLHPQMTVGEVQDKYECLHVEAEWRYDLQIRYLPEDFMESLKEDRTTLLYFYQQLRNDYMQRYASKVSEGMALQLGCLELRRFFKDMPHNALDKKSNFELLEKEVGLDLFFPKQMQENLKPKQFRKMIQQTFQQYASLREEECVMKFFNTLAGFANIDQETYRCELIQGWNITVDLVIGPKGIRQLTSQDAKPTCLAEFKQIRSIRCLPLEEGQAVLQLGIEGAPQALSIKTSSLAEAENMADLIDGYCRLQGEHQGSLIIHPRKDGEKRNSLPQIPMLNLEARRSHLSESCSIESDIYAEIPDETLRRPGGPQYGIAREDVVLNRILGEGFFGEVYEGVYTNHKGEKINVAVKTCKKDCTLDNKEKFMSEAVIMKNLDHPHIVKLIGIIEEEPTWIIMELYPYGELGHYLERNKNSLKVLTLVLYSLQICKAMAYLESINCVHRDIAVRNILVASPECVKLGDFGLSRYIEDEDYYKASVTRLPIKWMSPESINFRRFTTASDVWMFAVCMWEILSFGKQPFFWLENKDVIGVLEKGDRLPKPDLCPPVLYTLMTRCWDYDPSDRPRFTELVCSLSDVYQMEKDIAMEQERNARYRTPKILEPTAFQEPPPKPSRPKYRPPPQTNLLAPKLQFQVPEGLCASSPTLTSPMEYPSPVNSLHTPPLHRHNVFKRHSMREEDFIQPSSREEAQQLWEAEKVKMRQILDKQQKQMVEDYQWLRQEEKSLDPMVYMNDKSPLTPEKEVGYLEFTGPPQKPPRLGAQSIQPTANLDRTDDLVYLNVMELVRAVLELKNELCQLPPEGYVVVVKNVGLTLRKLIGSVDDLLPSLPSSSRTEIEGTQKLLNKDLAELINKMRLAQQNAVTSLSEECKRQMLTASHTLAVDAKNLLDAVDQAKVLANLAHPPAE

One may read the IC50 as the point on the concentration scale where inhibition reaches its midpoint. Low readings indicate higher potency, high ones lower potency. Turning to `COc1cc(N2CCOCC2)ccc1Nc1nc2c(c(Nc3ccccc3N(C)S(C)(=O)=O)n1)C(C)CN2` (racemic) [Example 31, (±)-N-(2-(2-(2-methoxy-4-morpholinophenylamino)-5-methyl-6,7-dihydro-5H-pyrrolo[2,3-d]pyrimidin-4-ylamino)phenyl)-N-methylmethanesulfonamide], the values for the IC50 at FAK and against PYK2 were below 30 nM and below 20 nM, respectively.
The corresponding values for `CNC(=O)c1ccccc1Nc1nc(Nc2cc(C)nn2C)nc2c1C(C)(C)CN2` [Example 132, 2-(2-(1,3-dimethyl-1H-pyrazol-5-ylamino)-5,5-dimethyl-6,7-dihydro-5H-pyrrolo[2,3-d]pyrimidin-4-ylamino)-N-methylbenzamide] are below 20 nM and below 50 nM.
The like results for `COc1cc(N2CCOCC2)ccc1Nc1nc2c(c(Nc3cccc(C)n3)n1)C1(CC1)CN2` [Example 154, N^2′-(2-methoxy-4-morpholinophenyl)-N^4′-(6-methylpyridin-2-yl)-6′,7′-dihydrospiro[cyclopropane-1,5′-pyrrolo[2,3-d]pyrimidine]-2′,4′-diamine] were, in that order, below 50 nM and below 100 nM.
